Assay results published in patent publication US4864023A, “Pyrido(3,2,1-IJ)-1,3,4-benzoxadiazine derivatives” (priority 1988, dated 1989).
≈ marks a conversion by molar mass, not a printed value. Like-named read-outs stand apart in the source and are kept apart here.

Experiments:
Experiment in all cases: in vitro antibacterial activity, standard agar dilution method
Type in all cases: cell-based
[1] = test system: Staphylococcus aureus FDA 209P JC-1; conditions: FDA209P, read-out: minimum inhibitory concentration (MIC)
[2] = test system: Staphylococcus aureus Smith; conditions: Staphylococcus aureus Smith; aerobic; agar dilution; read-out: minimum inhibitory concentration (MIC)
[3] = test system: Staphylococcus epidermidis NR 2942; conditions: NR2942, aerobic, read-out: minimum inhibitory concentration (MIC)
[4] = test system: Enterobacter cloacae NR 2946; conditions: NR2946, aerobic, read-out: minimum inhibitory concentration (MIC)
[5] = test system: Klebsiella pneumoniae FDA PCI 602; conditions: FDAPCI602, aerobic, read-out: minimum inhibitory concentration (MIC)
[6] = test system: Proteus rettgeri ATCC 14505; conditions: Providencia rettgeri, ATCC14505, aerobic, read-out: minimum inhibitory concentration (MIC)
[7] = test system: Pseudomonas aeruginosa A3; conditions: aerobic, read-out: minimum inhibitory concentration (MIC)
[8] = test system: Pseudomonas aeruginosa NR 2950; conditions: NR2950, aerobic, read-out: minimum inhibitory concentration (MIC)
[9] = test system: Bacteroides fragilis NR 2579; conditions: NR2579, anaerobic, read-out: minimum inhibitory concentration (MIC)
[10] = test system: Bacteroides fragilis NR 2583; conditions: NR2583, anaerobic, read-out: minimum inhibitory concentration (MIC)
[11] = test system: Bacteroides thetaiotaomicron NR 2588; conditions: NR2588, anaerobic, read-out: minimum inhibitory concentration (MIC)
[12] = test system: Bifidobacterium adolescentis ATCC 15703; conditions: ATCC15703, anaerobic, read-out: minimum inhibitory concentration (MIC)
[13] = test system: Fusobacterium varium ATCC 8501; conditions: ATCC8501, anaerobic, read-out: minimum inhibitory concentration (MIC)
[14] = test system: Peptococcus variabilis ATCC 14955; conditions: anaerobic, read-out: minimum inhibitory concentration (MIC)

| Compound | MIC ([1]; Staphylococcus aureus) | MIC [2] | MIC [3] | MIC [4] | MIC [5] | MIC [6] | MIC [7] | MIC [8] | MIC [9] | MIC [10] | MIC [11] | MIC [12] | MIC [13] | MIC [14] | MIC ([1]; Staphylococcus aureus FDA 209P JC-1, aerobic, agar dilution) |
| --- | --- | --- | --- | --- | --- | --- | --- | --- | --- | --- | --- | --- | --- | --- | --- |
| CN1CCN(c2c(F)cc3c(=O)c(C(=O)O)cn4c3c2OCN4C)CC1 [Example 5, 9-fluoro-3-methyl-10-(4-methyl-1-piperazinyl)-7-oxo-2,3-dihydro-7H-pyrido[3,2,1-ij]-1,3,4-benzoxadiazine-6-carboxylic acid] | 0.39 µg/mL (≈ 1.08 µM) | 0.2 µg/mL (≈ 0.552 µM) | 0.39 µg/mL (≈ 1.08 µM) | 0.025 µg/mL (≈ 0.069 µM) | 0.1 µg/mL (≈ 0.276 µM) | 0.2 µg/mL (≈ 0.552 µM) | 0.2 µg/mL (≈ 0.552 µM) | 0.78 µg/mL (≈ 2.15 µM) | 3.13 µg/mL (≈ 8.64 µM) | 0.39 µg/mL (≈ 1.08 µM) | 1.56 µg/mL (≈ 4.31 µM) | 0.39 µg/mL (≈ 1.08 µM) | 12.5 µg/mL (≈ 34.5 µM) | 0.78 µg/mL (≈ 2.15 µM) |  |
| CN1COc2c(N3CCC(N)C3)c(F)cc3c(=O)c(C(=O)O)cn1c23 (stereo not drawn) [Example 30, 10-(3-amino-1-pyrrolidinyl)-9-fluoro-3-methyl-7-oxo-2,3-dihydro-7H-pyrido[3,2,1-ij]-1,3,4-benzoxadiazine-6-carboxylic acid] |  | 0.05 µg/mL (≈ 0.144 µM) | 0.2 µg/mL (≈ 0.574 µM) | 0.013 µg/mL (≈ 0.0373 µM) | 0.1 µg/mL (≈ 0.287 µM) | 0.1 µg/mL (≈ 0.287 µM) | 0.05 µg/mL (≈ 0.144 µM) | 0.2 µg/mL (≈ 0.574 µM) | 1.56 µg/mL (≈ 4.48 µM) | 0.1 µg/mL (≈ 0.287 µM) | 0.78 µg/mL (≈ 2.24 µM) | 0.1 µg/mL (≈ 0.287 µM) |  | 0.2 µg/mL (≈ 0.574 µM) | 0.05 µg/mL (≈ 0.144 µM) |
